# Reference: US9097673B2, “Processes and kits for determining multi-drug resistance of cells” (ENZO LIFE SCIENCES, INC., priority 2010, dated 2015)
# What was measured:
# HCT-8 cells = assay: Dye uptake flow cytometry MDR assay; assay type: cell-based, human; design: key: Kolmogorov-Smirnov D statistic comparing fluorescence distributions; settings: HCT-8, dye uptake
# Description: Cells were grown on tissue culture dishes and on the day of assay were trypsinized and washed twice with warm (37° C.) phosphate-buffered saline (PBS). Post-wash, the cells were re-suspended in warm phenol red indicator-free medium at a density of 1×10^6/ml. For each detection set, sixteen tubes (5 samples in triplicates plus non-stained control for background fluorescence) in numbered tubes each containing 5×10^5/cells (0.5 ml) were prepared. […] After incubation for 5 min at 37° C., 0.25 ml of warm medium with Fluo-8™ AM probe (5 μM final concentration) or Rhod-4™ AM probe (2 μM final concentration) was added to each tube excluding non-stained control that receives plain medium and cells were incubated for 30 min at 37° C. and analyzed immediately by flow cytometry. In the second set of the tubes, the reaction was stopped by rapid centrifugation (1 min) at relatively low speed (200×g). After wash with ice-cold PBS and discarding the supernatant, cells were re-suspended in 0.5 ml of ice-cold medium and kept on ice until flow cytometry analysis. The third set of cells simply was spun down (1 min, 200×g) to remove the excess of the probe, resuspended in ice-cold medium and kept on ice until flow cytometry analysis.
# Flow cytometry experiments were performed using a FACS Calibur benchtop flow cytometer (BD Biosciences) equipped with a blue (488 nm) laser, and the signals were registered in the FITC (530/30 filter), PE (585/42 filter) and PerCP (670 LP filter) channels. Fluo-8™ dye fluorescence was measured in the FL1 channel, and Rhod-4™ dye fluorescence—in the FL2 channel. Flow cytometry data were analyzed by comparison of median fluorescence or using Kolmogorov-Smirnov statistics [Young, J Histochem Cytochem 25:935-941 (1977)] or by calculating MAF values (MDR Activity Factor) using the following formula: MAF=100*((MFIinh−MFI0)/MFIinh), where MFIinh and MFI0 are mean fluorescence intensity values measured in the presence and absence of inhibitor [Hollo et al., Biochem Piophys Acta. 1191:384-388 (1994)].
# Both human ileocecal colorectal carcinoma cell line HCT-8 (reported to over-express P-gp and, to a lesser extent, MRP [Hunter et al., Br J Cancer. 64:437-444 (1991); Collington et al., Biochem Pharmacol 44:417-424 (1992)] and hepatocellular carcinoma Hep G2 (reported to over-express MRP [Roelofsen et al., Gastroenterology 112:511-521 (1997), Cantz et al., Am J Physiol Gastrointest Liver Physiol. 278:G522-G531 (2000)] were obtained from ATCC. HCT-8 cells were routinely cultured in RPMI-1640 Medium with 2 mM L-glutamine, 10 mM HEPES, 1 mM sodium piruvate, 4.5 g/L glucose, 1.5 g/L sodium bicarbonate (ATCC), supplemented with 10% horse serum (ATCC) and 100 U/ml penicillin, 100 ug/ml streptomycin (Sigma-Aldrich, St. Louis, Mo.). Hep G2 cells were routinely cultured in Eagle's Minimum Essential Medium with low glucose (ATCC), supplemented with 10% heat inactivated fetal bovine serum (ATCC) and 100 U/ml penicillin, 100 ug/ml streptomycin (Sigma-Aldrich, St. Louis, Mo.). Cell cultures were maintained in a humidified incubator at 37° C., with 5% CO2 atmosphere. Stock solutions of the probes and inhibitors were prepared, as described in Examples 2 and 3. Cells were grown in tissue culture dishes and on the day of assay were treated according to a dye uptake protocol and analyzed by flow cytometry, as described in Example 3.
# CHO K1 cell line = assay: Dye efflux flow cytometry MDR assay; assay type: cell-based, hamster; design: key to D-value, Verapamil / D-value, Novobiocin: KS D value, 0 to 1; negative if control brighter than sample; settings: for D-value, +4° C.: kept on ice without inhibitor
# Excerpt: Kolmogorov-Smirnov statistics measures the difference between two distribution functions and generates a D value ranging between 0 and 1.0, with higher values indicating a greater difference between the distribution functions. The D value generated by the KS statistics was modified by ascribing a negative value if the fluorescence of a negative control (no inhibitor) was brighter than the fluorescence of the sample with inhibitor. The method was one of those recommended by the First International MDR1 Methods Detection Workshop (St. Jude Children's Research Hospital, Memphis, Tenn.).
# Cells were grown in tissue culture dishes and on the day of assay they were trypsinized and washed twice with ice-cold PBS. Post-wash, the cells were re-suspended in cold phenol red indicator-free medium at a density of 1×10^6/ml. For each detection set, eighteen tubes (6 tubes without inhibitor and 3 tubes for each inhibitor tested, in triplicates) each containing 2.5-5×10^5/cells were prepared. Cells were centrifuged at 200×g for 5 min, and after discarding supernatant, re-suspended at 1×10^6/ml in ice-cold indicator-free medium containing Fluo-8™ AM or Rhod-4™ AM probes. Additionally, an aliquot of non-stained cells was prepared for background fluorescence measurements. Cells were incubated with the probe(s) on ice for 60 min, than centrifuged at 200×g for 5 min. After discarding the supernatant, cells were either washed twice with PBS or simply were spun down to remove the excess of the probe and resuspended at 5×10^5 cells/sample in 0.5 ml of following solutions:
# 1. warm (37° C.) indicator-free medium containing vehicle only (3 tubes)
# 2. warm (37° C.) indicator-free medium containing inhibitor (3 tubes for each inhibitor tested)
# 3. ice-cold indicator-free medium (3 tubes)
# Tube sets 1 and 2 were immediately transferred to a water bath (37° C.) and incubated for 90 min. Tube set 3 was kept on ice. Post incubation, 4 ml of ice-cold indicator-free medium was added per tube, tubes were centrifuged at 200×g for 5 min, supernatant was discarded, and cell pellet was re-suspended in the cold indicator-free medium and centrifuged again. Finally, cells were re-suspended in 0.5 ml of cold indicator-free medium and maintained on ice until analysis. Alternatively, cells were analyzed without washing. Flow cytometry experiments were performed as described in Example 3.
# A549 cell line = assay: Dye uptake flow cytometry MDR assay; assay type: cell-based, human; settings: A549, dye uptake
# Description: Concentrations of the modulators used in the experiments were non-toxic to the cells (based upon standard 3-(4,5-Dimethylthiazol-2-Yl)-2,5-Diphenyltetrazolium Bromide (MTT) testing, data not shown). Fluo-8™ was used in all experiments at 5 μM, and Rhod-4™—at 4 μM final concentrations.
# [1] = CHO K1, dye efflux, representative experiment (Table 9)
# [2] = Fluo-8 AM probe, dye efflux, CHO K1, No Wash
# [3] = Fluo-8 AM probe, dye efflux, CHO K1, Wash
# [4] = average of three independent experiments (Table 10)
# [5] = average of three representative experiments (Table 6)
# [6] = representative experiment (Table 8)
compound,measurement,setting,value
CC(=O)OCOC(=O)CN(CC(=O)OCOC(C)=O)c1ccccc1OCCOc1cc(-c2c3ccc(=O)cc-3oc3cc(OCOC(C)=O)ccc23)ccc1N(CC(=O)OCOC(C)=O)CC(=O)OCOC(C)=O [Fluo-8 ™ AM],"D-value, CyclosporinA",HCT-8 cells,0.68
same,"D-value, MK-571",HCT-8 cells,0.34
same,"D-value, Novobiocin",HCT-8 cells,0.22
same,"D-value, Verapamil",HCT-8 cells,0.71
same,"D-value, 4° C.","CHO K1 cell line; CHO K1, dye efflux, kept on ice without inhibitor (Table 9)",0.72
same,"D-value, Cyclosporine A",CHO K1 cell line; [1],0.55
same,"D-value, Novobiocin",CHO K1 cell line; [1],0.70
same,"D-value, Probenecid",CHO K1 cell line; [1],0.30
same,"D-value, Verapamil",CHO K1 cell line; [1],0.28
same,"D-value, Cyclosporin A",CHO K1 cell line; [2],0.8
same,"D-value, Novobiocin",CHO K1 cell line; [2],0.7
same,"D-value, Probenecid",CHO K1 cell line; [2],0.19
same,"D-value, Verapamil",CHO K1 cell line; [2],0.21
same,"D-value, +4° C.",CHO K1 cell line; [2],0.78
same,"D-value, Cyclosporin A",CHO K1 cell line; [3],0.62
same,"D-value, Novobiocin",CHO K1 cell line; [3],0.79
same,"D-value, Probenecid",CHO K1 cell line; [3],0.23
same,"D-value, Verapamil",CHO K1 cell line; [3],0.34
same,"D-value, +4° C.",CHO K1 cell line; [3],0.76
same,"D-value, Cyclosporine A",A549 cell line; [4],0.43
same,"D-value, FTC",A549 cell line; [4],0.31
same,"D-value, MK-571",A549 cell line; [4],0.61
same,"D-value, Novobiocin",A549 cell line; [4],0.37
same,"D-value, Verapamil",A549 cell line; [4],0.06
same,"D-value, Fumitremorgan C",A549 cell line; [5],0.23
same,"D-value, Probenecid",A549 cell line; [5],0.26
same,"D-value, Verapamil",A549 cell line; [5],0.07
same,"D-value, Cyclosporine A",A549 cell line; [6],0.51
same,"D-value, Novobiocin",A549 cell line; [6],0.44
same,"D-value, Probenecid",A549 cell line; [6],0.49
same,"D-value, Verapamil",A549 cell line; [6],0.09
